In brackets after ≈: the same amount, converted by molar mass.
What was measured:
Test in all cases: Minimum inhibitory concentration (broth microdilution, CLSI)
Type in all cases: cell-based
[1] = test system: Klebsiella pneumoniae HDBKP 9153; settings: HDBKP9153
Description: (§1) 103 bacterial strains used for the minimum inhibitory concentration test were frozen in a −80° C. ULT freezer and thawed 2 days before use. A small amount of frozen microorganism bacteria were scraped using a sterile inoculating loop, streaked onto a suitable solid culture dish for inoculation, and then cultured for about 20 h at 35 t 2° C. in a normal incubator. • Proteus mirabilis HDBPM 40: MA, normal atmospheric environment • The remaining 102 strains of bacteria: TSA, normal atmospheric environment
(§2) 5-10 colonies with similar morphology were picked from the culture dish using a sterile inoculating loop and then re-streaked onto a corresponding solid culture dish. Then the dish was incubated in a normal incubator at 35 t 2° C. for about 20 h.
(§3) 5-10 single microbial colonies were picked from the solid culture dish, resuspended in 500 μL of sterile normal saline (0.9% NaCl), and adjusted to an OD600 of about 0.15 with a spectrophotometer.
(§4) The bacteria were then diluted 300-fold with 1.02×CAMHB to an inoculation concentration of 2×10^5 CFU/mL.
(§5) • There were a total of 3 assay plate patterns, one of which was used for each assay. • 8 rows of the assay plate (rows A-H) were for 8 test compounds, respectively. The highest test concentration of the compounds was 16, 32 or 64 μg/mL, and each compound was diluted 2-fold. • Growth control (GC): a medium containing microbial inoculum (1.02×CAMHB) and dimethylsulfoxide (DMSO) but no compound.
(§6) The test and reference compounds were dissolved in DMSO or H2O to prepare 6.4 mg/mL stock solutions. The stock solutions were diluted to prepare standby solutions with certain concentrations, and the volumes of the standby solutions were determined according to the experimental design. Corresponding volumes of the standby solutions were transferred to the starting wells of a dilution plate (A1-H1), and half the starting-well volume of DMSO to the other wells. Each compound was diluted 2-fold sequentially from column 1 to column 11 (e.g., transferring 30 μL of DMSO to columns 2-12 first, then pipetting 30 μL of the compounds from column 1 to column 2 and mixing them well, then pipetting 30 μL of the compounds from column 2 to column 3 and mixing them well, then pipetting 30 μL of the compounds from column 3 to column 4 and mixing them well, and so on to column 11).
(§7) 1 or 2 μL of the compounds and DMSO were transferred from the compound plate to corresponding wells of the assay plates.
(§8) 98 μL of corresponding bacterial inocula were added to the assay plates.
(§9) After addition, the assay plates were covered with sterile covers. The mixtures in the assay plates were centrifuged in a centrifuge at 800 rpm for 30 s, mixed well on a microplate shaker at 400 rpm for 1 min, and incubated in a normal incubator at 35 t 2° C. for 20-24 h.
(§10) The assay plates were placed on a plate reading device, and the speculum was adjusted to observe and record the growth condition of bacteria in each well. In the mean time, each assay plate was photographed with QCount system.
(§11) The minimum inhibitory concentration of each compound was recorded by reference to guidelines from the Clinical and Laboratory Standards Institute.
(§12) The minimum inhibitory concentrations of the compounds against experimental strains were tested in this study by reference to the medium microdilution method as indicated by the Clinical and Laboratory Standards Institute. Compounds were diluted two-fold in 96-well plates from the highest detection concentration of 16, 32 or 64 μg/mL. The bacterial inocula in the assay plates were thawed from corresponding medium plates and diluted in 1.02×CAMHB, while growth controls (GC wells) were set up in the assay plates. The minimum inhibitory concentration of each compound against different bacteria was observed and recorded after the assay plates were incubated in a normal incubator at 35 t 2° C. for about 20 h. The minimum inhibitory concentration values for the different compounds are listed in the list below.

[2] = test system: Escherichia coli HDBEC 30016; settings: HDBEC30016
Description: as §1, §2, §3, §4, §5, §6, §7, §8, §9, §10, §11, §12

[3] = test system: Proteus mirabilis HDBPM 40; settings: HDBPM40
Description: as §1, §2, §3, §4, §5, §6, §7, §8, §9, §10, §11, §12

[4] = test system: Pseudomonas aeruginosa HDBPA 5679; settings: HDBPA5679
Description: as §1, §2, §3, §4, §5, §6, §7, §8, §9, §10, §11, §12

[5] = test system: Escherichia coli HDBEC 30048; settings: HDBEC30048
Description: as §1, §2, §3, §4, §5, §6, §7, §8, §9, §10, §11, §12

[6] = test system: Klebsiella pneumoniae HDBKP 9249; settings: HDBKP9249
Description: as §1, §2, §3, §4, §5, §6, §7, §8, §9, §10, §11, §12

[7] = test system: Escherichia coli HDBEC 30008; settings: HDBEC30008
Description: as §1, §2, §3, §4, §5, §6, §7, §8, §9, §10, §11, §12

[8] = test system: Klebsiella pneumoniae HDBKP 30006; settings: HDBKP30006
Description: as §1, §2, §3, §4, §5, §6, §7, §8, §9, §10, §11, §12

[9] = test system: Enterobacter cloacae HDBECL 30030; settings: HDBECL30030
Description: as §1, §2, §3, §4, §5, §6, §7, §8, §9, §10, §11, §12

Row | MIC [1] [µg/mL] | MIC [2] [µg/mL] | MIC [3] [µg/mL] | MIC [4] [µg/mL] | MIC [5] [µg/mL] | MIC [6] [µg/mL] | MIC [7] [µg/mL] | MIC [8] [µg/mL] | MIC [9] [µg/mL] | SMILES
1 | > 16 | > 16 | < 4 | > 16 | > 16 | < 4 | 4 to 8 | 4 to 8 | < 4 | C[n+]1cc(-c2cc(C(=O)NC[C@@H]3[C@H](NC(=O)/C(=N\OC(C)(C)C(=O)O)c4csc(N)n4)C(=O)N3S(=O)(=O)O)on2)cn1CCCN [Compound I-1]
2 | < 4 | > 16 | < 4 | > 16 | > 16 | < 4 | < 4 | < 4 | < 4 | C[n+]1cc(-c2ncc(C(=O)NC[C@@H]3[C@H](NC(=O)/C(=N\OC(C)(C)C(=O)O)c4csc(N)n4)C(=O)N3S(=O)(=O)O)s2)cn1CCCN [Compound I-2]
3 | > 16 | > 16 | < 4 | > 16 | > 16 | < 4 | < 4 | 4 to 8 | < 4 | CC(C)(O/N=C(\C(=O)N[C@@H]1C(=O)N(S(=O)(=O)O)[C@@H]1CNC(=O)c1cc(-c2cc[n+](CCNC(=N)N)cc2)no1)c1csc(N)n1)C(=O)O [Compound I-3]
4 | > 16 | > 16 | < 4 | > 16 | > 16 | < 4 | 4 to 8 | > 16 | 4 to 8 | CC(C)(O/N=C(\C(=O)N[C@@H]1C(=O)N(S(=O)(=O)O)[C@@H]1CNC(=O)c1cc(-c2cc[n+](CCN)cc2)no1)c1csc(N)n1)C(=O)O [Compound I-4]
5 | > 16 | > 16 | < 4 | > 16 | > 16 | < 4 | < 4 | > 16 | < 4 | CC(C)(O/N=C(\C(=O)N[C@@H]1C(=O)N(S(=O)(=O)O)[C@@H]1CNC(=O)c1cc([C@@H]2CCNC2)no1)c1csc(N)n1)C(=O)O [Compound I-5]
6 | > 16 | > 16 | < 4 | > 16 | > 16 | < 4 | < 4 | > 16 | < 4 | CC(C)(O/N=C(\C(=O)N[C@@H]1C(=O)N(S(=O)(=O)O)[C@@H]1CNC(=O)c1cc(C2CNC2)no1)c1csc(N)n1)C(=O)O [Compound I-6]
7 | < 4 | < 4 | < 4 | < 4 | < 4 | 4 to 8 (≈ 5.2 to 10.4 µM) | < 4 | 4 to 8 (≈ 5.2 to 10.4 µM) | < 4 | CC(C)(O/N=C(\C(=O)N[C@@H]1C(=O)N(S(=O)(=O)O)[C@@H]1CNC(=O)c1cc([C@@H]2CCN(C(=O)c3ccc(O)c(O)c3F)C2)no1)c1csc(N)n1)C(=O)O [Compound I-8]
8 | 8 to 16 | > 16 | < 4 | > 16 | > 16 | < 4 | < 4 | 4 to 8 | < 4 | C[n+]1cc(-c2ncc(C(=O)NC[C@@H]3[C@H](NC(=O)/C(=N\OC(C)(C)C(=O)O)c4csc(N)n4)C(=O)N3S(=O)(=O)O)s2)cn1CC(N)CN (stereo partly drawn) [Compound I-9]
9 | < 4 | 8 to 16 | < 4 | > 16 | 8 to 16 | < 4 | < 4 | < 4 | < 4 | C[n+]1cc(-c2ncc(C(=O)NC[C@@H]3[C@H](NC(=O)/C(=N\OC(C)(C)C(=O)O)c4csc(N)n4)C(=O)N3S(=O)(=O)O)s2)cn1CCCNC(=N)N [Compound I-11]
10 | < 4 | < 4 | < 4 | < 4 | < 4 | 4 to 8 | < 4 | 8 to 16 | < 4 | C[n+]1cc(-c2ncc(C(=O)NC[C@@H]3[C@H](NC(=O)/C(=N\OC(C)(C)C(=O)O)c4csc(N)n4)C(=O)N3S(=O)(=O)O)s2)cn1CCCNC(=O)c1cc(=O)c(O)cn1O [Compound I-12]
11 | 4 to 8 | > 16 | < 4 | > 16 | > 16 | < 4 | 8 to 16 | 8 to 16 | 4 to 8 | C[n+]1cc(C(=O)NC[C@@H]2[C@H](NC(=O)/C(=N\OC(C)(C)C(=O)O)c3csc(N)n3)C(=O)N2S(=O)(=O)O)sc1-c1cnn(CC(N)CN)c1 (stereo partly drawn) [Compound I-13]
12 | < 4 | > 16 | < 4 | < 4 | < 4 | > 16 | < 4 | > 16 | < 4 | CC(C)(O/N=C(\C(=O)N[C@@H]1C(=O)N(S(=O)(=O)O)[C@@H]1CNC(=O)c1cc([C@@H]2CCN(C(=O)c3cc(=O)c(O)cn3O)C2)no1)c1nsc(N)n1)C(=O)O [Compound I-14]
13 | > 16 | > 16 | < 4 | > 16 | > 16 | > 16 | 4 to 8 | > 16 | 4 to 8 | C[n+]1cc(-c2ncc(C(=O)NC[C@@H]3[C@H](NC(=O)/C(=N\OC(C)(C)C(=O)O)c4nsc(N)n4)C(=O)N3S(=O)(=O)O)s2)cn1CC(N)CN (stereo partly drawn) [Compound I-15]
14 | > 16 | > 16 | < 4 | > 16 | > 16 | 8 to 16 | 8 to 16 | > 16 | > 16 | C[n+]1cc(-c2ncc(C(=O)NC[C@@H]3[C@H](NC(=O)/C(=N\OC(C)(C)C(=O)O)c4nsc(N)n4)C(=O)N3S(=O)(=O)O)s2)cn1CCCN [Compound I-16]
15 | < 4 | 4 to 8 (≈ 5.22 to 10.4 µM) | < 4 | < 4 | < 4 | < 4 | < 4 | > 16 | < 4 | Nc1nc(/C(=N/OC2(C(=O)O)CC2)C(=O)N[C@H]2C(=O)N(S(=O)(=O)O)[C@H]2CNC(=O)c2cc([C@@H]3CCN(C(=O)c4cc(=O)c(O)cn4O)C3)no2)cs1 [Compound I-17]
16 | 4 to 8 (≈ 5.09 to 10.2 µM) | 8 to 16 (≈ 10.2 to 20.4 µM) | < 4 | 4 to 8 (≈ 5.09 to 10.2 µM) | < 4 | > 16 | < 4 | > 16 | < 4 | CC(C)(O/N=C(\C(=O)N[C@H]1C(=O)N(S(=O)(=O)O)[C@H]1CNC(=O)c1cc([C@@H]2CCN(C(=O)c3ccc(O)c(O)c3Cl)C2)no1)c1csc(N)n1)C(=O)O [Compound I-18]
17 | < 4 | 4 to 8 (≈ 4.88 to 9.76 µM) | < 4 | 4 to 8 (≈ 4.88 to 9.76 µM) | < 4 | 8 to 16 (≈ 9.76 to 19.5 µM) | < 4 | > 16 | < 4 | CC(C)(O/N=C(\C(=O)N[C@H]1C(=O)N(S(=O)(=O)O)[C@H]1CNC(=O)c1cc([C@@H]2CCN(C(=O)c3cc(Cl)c(O)c(O)c3Cl)C2)no1)c1csc(N)n1)C(=O)O [Compound I-19]
